Test results taken from patent US20220323594A1, “LIPIDATED CATIONIC PEPTIDE-PEG COMPOSITIONS FOR NUCLEIC ACID DELIVERY” (NUTCRACKER THERAPEUTICS, INC., priority 2019, published 2022).

Assays:
[1] = Dynamic light scattering (DLS) of mRNA/peptoid formulations: particle size and polydispersity; format: physicochemical; conditions: Fluc mRNA/peptoid formulation; for Size PDI: size polydispersity index by DLS, 5:1 mass ratio; for Size (nm): volume average particle size/diameter by DLS, 5:1 mass ratio peptoid:cargo
Method in brief: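 Fluc mRNA was complexed with amino lipidated peptoids by pipetting at a 5:1 peptoid:cargo mass ratio, peptoid in ethanol and mRNA in PBS pH 5.5 (1:3 volume ratio). DLS gave volume-average diameter (nm) and polydispersity index.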

[2] = mRNA encapsulation by fluorescence of Qubit RNA HS dye before and after lysis with Triton X-100; format: physicochemical; conditions: percentage of mRNA encapsulation; Fluc mRNA/peptoid formulation, 5:1 mass ratio
Method in brief: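 Peptoid/Fluc mRNA nanoparticles were formed by pipette mixing at a 5:1 peptoid:mRNA mass ratio. Percent encapsulation came from Qubit RNA HS dye fluorescence before versus after particle lysis with Triton X-100.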

HeLa cells [3] = test: In vitro expression of firefly luciferase (Fluc) after treatment with Fluc mRNA/amino lipidated peptoid formulations, no PEG or 2% DMG-PEG2000; format: cell-based
Method in brief: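 Peptoid/Fluc mRNA particles (5:1 w/w), without PEG or with DMG-PEG2000 pre-mixed into peptoid at 2% w/w, dosed at 100 ng mRNA/well on HeLa cells. Luciferase luminescence (RLU) read after 6 h and 24 h.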

HeLa cells [4] = test: In vitro Fluc expression with variable peptoid:mRNA mass ratio, 2% DMG-PEG2000; format: cell-based; conditions: 24 h; for Observed Luciferase Expression (RLU) for Given Formulation Mass Ratio 2:1: 2% (w/w) DMG-PEG2000, peptoid:mRNA 2:1; for Observed Luciferase Expression (RLU) for Given Formulation Mass Ratio 3.5:1: 2% (w/w) DMG-PEG2000, peptoid:mRNA 3.5:1; for Observed Luciferase Expression (RLU) for Given Formulation Mass Ratio 5:1: 2% (w/w) DMG-PEG2000, peptoid:mRNA 5:1; for Observed Luciferase Expression (RLU) for Given Formulation Mass Ratio 7.5:1: 2% (w/w) DMG-PEG2000, peptoid:mRNA 7.5:1
Method in brief: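 Fluc mRNA particles formulated at 2:1, 3.5:1, 5:1 and 7.5:1 peptoid:mRNA (w/w), with DMG-PEG2000 at 2% (w/w) relative to amino lipidated peptoid. HeLa cells treated for 24 hours; Fluc expression read as bioluminescence (RLU).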

[5] = MTT viability assay after treatment with Fluc mRNA/amino lipidated peptoid formulations; format: cell-based; conditions: human, HeLa cells
Method in brief: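 Formulations (peptoid:mRNA 5:1 mass ratio, 2% w/w DMG-PEG2000) were applied at 100 ng Fluc mRNA per well for 8 h, followed by 48 h of growth. Cells then received 1.5 mg/mL MTT for 2 h, and formazan signal was normalized to untreated cells.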

Balb/c mice [6] = test: In vivo whole-body expression of Fluc following IV administration; conditions: Balb/c mice (n=3), IV tail-vein, 0.5 mg/kg, 5:1 peptoid:mRNA, 2% w/w DMG-PEG2000, 8 hours
Protocol: (§1) Amino lipidated peptoid delivery vehicles are effective for in vivo administration of Fluc mRNA to Balb/c mice (n=3) through multiple routes of administration. Briefly, representative amino lipidated peptoid/Fluc formulations (prepared at a 5:1 mass ratio of amino lipidated peptoid:mRNA unless noted, with 2% w/w DMG-PEG2000) were administered at a dose of 0.5 mg/kg via a tail-vein injection, and the resulting bioluminescence was quantified after 8 hours.

Balb/c mice [7] = test: In vivo organ-specific bioluminescence (biodistribution of Fluc) following IV administration; conditions: for Total Flux (p/s) Liver: dissected liver; for Total Flux (p/s) Lung: dissected lung; for Total Flux (p/s) Spleen: dissected spleen
Protocol: as §1, with “hours. […] Organ-specific bioluminescence was quantified by sacrificing the treated animal, dissecting out the organs of interest, and separately quantifying the resulting bioluminescence. […] FIG. 7C depicts a bar chart quantifying the organ-specific biodistribution of the formulations as a function of total photon flux.” for “hours.”

Balb/c mice [8] = test: In vivo expression of Fluc following subcutaneous or intramuscular administration; conditions: for Total Flux (photons/sec) I.M. (0.05 mpk): intramuscular, mRNA 0.05 mpk; for Total Flux (photons/sec) S.C. (0.1 mpk): subcutaneous, mRNA 0.1 mpk
Protocol: In addition to IV administration, amino lipidated peptoids are also effective for local administration of mRNA through subcutaneous (S.C.) or intramuscular (I.M.) routes of administration. […] For these examples, mRNA was administered at a dose of 0.1 milligrams/kilogram (mpk) for subcutaneous or 0.05 mpk for intramuscular. In these cases, the overall expression was higher following intramuscular injections. […] Additional experiments were carried out to assess any variability in biodistribution as a function of the loading mass ratio of amino lipidated peptoid to the Fluc mRNA. FIG. 8A depicts a plot of total photon flux for formulations of amino lipidated peptoid compound 28 with 2% DMG-PEG 2000 and Fluc mRNA at different peptoid:mRNA ratios (1:1, 2:1, 5:1, 7.5:1 and 10:1).

[9] = no PEG, peptoid:Fluc mRNA 5:1 w/w, 100 ng/well, 6 h of treatment
[10] = no PEG, peptoid:Fluc mRNA 5:1 w/w, 100 ng/well, 24 h of treatment
[11] = with 2% (w/w) DMG-PEG2000, peptoid:mRNA 5:1, 6 h after treatment
[12] = with 2% (w/w) DMG-PEG2000, peptoid:mRNA 5:1, 24 h after treatment

SMILES | Size PDI [1] | Size (nm) [1] [nm] | % Encapsulation [2] [%] | Luciferase Expression (RLU) 6 h (HeLa cells [3]; [9]) [RLU] | Luciferase Expression (RLU) 24 h (HeLa cells [3]; [10]) [RLU] | Luciferase Expression (RLU) 6 h (HeLa cells [3]; [11]) [RLU] | Luciferase Expression (RLU) 24 h (HeLa cells [3]; [12]) [RLU] | Observed Luciferase Expression (RLU) for Given Formulation Mass Ratio 2:1 (HeLa cells [4]) [RLU] | Observed Luciferase Expression (RLU) for Given Formulation Mass Ratio 3.5:1 (HeLa cells [4]) [RLU] | Observed Luciferase Expression (RLU) for Given Formulation Mass Ratio 5:1 (HeLa cells [4]) [RLU] | Observed Luciferase Expression (RLU) for Given Formulation Mass Ratio 7.5:1 (HeLa cells [4]) [RLU] | viability at 8 h, 500 ng/well ([5]; Relative Viability (%) 2% PEG) [%] | viability at 8 h, 500 ng/well ([5]; Relative Viability (%) No PEG) [%] | Total Flux (photons/sec), whole body (Balb/c mice [6]) [photons/sec] | Total Flux (p/s) Liver (Balb/c mice [7]) [p/s] | Total Flux (p/s) Lung (Balb/c mice [7]) [p/s] | Total Flux (p/s) Spleen (Balb/c mice [7]) [p/s] | Total Flux (photons/sec) I.M. (0.05 mpk) (Balb/c mice [8]) [photons/sec] | Total Flux (photons/sec) S.C. (0.1 mpk) (Balb/c mice [8]) [photons/sec]
CCCCCCCCCCN(CC(N)=O)C(=O)CN(CCCCCCCCCC)C(=O)CN(CCc1ccccc1)C(=O)CN(CCc1ccccc1)C(=O)CN(CCN)C(=O)CN(CCc1ccccc1)C(=O)CN(CCc1ccccc1)C(=O)CNCCN [Compound 10] | 0.009 | 157 | 92.6 | 1.88E+03 | 7.01E+02 | 2.21E+02 | 2.43E+02 | 5.57E+03 | 1.23E+04 | 3.51E+04 | 3.57E+02 | 108 | 101 | 1.04E+07 | 5.85E+05 | 5.14E+06 | 2.17E+06 | 9.01E+05 | 1.40E+05
CCCCCCCCCCN(CC(N)=O)C(=O)CN(CCCCCCCCCC)C(=O)CN(CCc1ccccc1)C(=O)CN(CCc1ccccc1)C(=O)CN(CCN)C(=O)CN(CCc1ccccc1)C(=O)CN(CCc1ccccc1)C(=O)CN(CCN)C(=O)CN(CCc1ccccc1)C(=O)CN(CCc1ccccc1)C(=O)CNCCN [Compound 2] | 0.128 | 150 | 100.3 | 2.35E+02 | 1.35E+02 | 5.40E+01 | 1.17E+02 | 2.45E+04 | 1.80E+04 | 2.81E+04 | 1.49E+03 | 92.6 | 90.6 | 1.37E+07 | 1.40E+06 | 2.46E+07 | 3.39E+06 | 1.27E+05 | 8.31E+04
CCCCCCCCCCN(CC(N)=O)C(=O)CN(CCCCCCCCCC)C(=O)CN(CCN)C(=O)CN(CCN)C(=O)CNCCN [Compound 14] | 0.233 | 554 | 77.3 | 3.20E+01 | 1.43E+01 | 4.67E+00 | 9.00E+00 | 8.31E+01 | 1.42E+02 | 4.29E+01 | 2.82E+01 | 91 |  | 4.58E+05 | 4.47E+04 | 4.17E+04 | 4.89E+04 |  | 
CCCCCCCCCCN(CC(N)=O)C(=O)CN(CCCCCCCCCC)C(=O)CN(CCc1ccccc1)C(=O)CN(CCc1ccccc1)C(=O)CN(CC1CCCN1)C(=O)CN(CCc1ccccc1)C(=O)CN(CCc1ccccc1)C(=O)CN(CC1CCCN1)C(=O)CN(CCc1ccccc1)C(=O)CN(CCc1ccccc1)C(=O)CNCC1CCCN1 (centres unmarked) [Compound 36] | 0.127 | 374.4 | 71.5 | 9.34E+03 | 7.78E+03 | 3.36E+02 | 7.45E+02 | 9.24E+02 | 4.18E+02 | 5.17E+02 | 6.71E+02 | 108 | 93.6 |  |  |  |  |  | 
CCCCCCCCN(CC(N)=O)C(=O)CN(CCCCCCCC)C(=O)CN(CCc1ccccc1)C(=O)CN(CCc1ccccc1)C(=O)CN(CCN)C(=O)CN(CCc1ccccc1)C(=O)CN(CCc1ccccc1)C(=O)CN(CCN)C(=O)CN(CCc1ccccc1)C(=O)CN(CCc1ccccc1)C(=O)CNCCN [Compound 1] | 0.047 | 356.9 | 90.1 | 1.22E+02 | 4.00E+01 | 2.09E+02 | 8.67E+00 | 6.82E+02 | 3.12E+02 | 2.31E+02 | 3.35E+01 | 88.1 | 97.4 |  |  |  |  |  | 
